This is an account of results in patent US20240390512A1, “METHODS OF TREATING CHEMOTHERAPY-RESISTANT CANCER WITH AN ANTIBODY-DRUG CONJUGATE” (DAIICHI SANKYO COMPANY, LIMITED, priority 2021, published 2024).

Read-outs that look alike come from different tables or passages of the source.

Test [1] relates to Human ovarian cancer cell line OV-90. As to the kind of experiment: Antitumor study (2), combination with carboplatin, OV-90 xenograft. Particulars: Day 21; ADC (1) 1 mg/kg iv Day 0, carboplatin 50 mg/kg iv Day 0.
From the text: Human ovarian cancer cell line OV-90, which was purchased from ATCC, was suspended into Matrigel (Corning Inc.), subcutaneously transplanted at 2.5×10^6 cells into the right side of female nude mice, and the mice were randomly grouped 14 days after the transplantation (Day 0). […] Single administration groups of each drug, a combined administration group, and a solvent administration group as a control group were set up.
In test [2] the test system is Human ovarian cancer cell line NIH:OVCAR-3. As to the kind of experiment: Antitumor study (1), combination with carboplatin, NIH:OVCAR-3 xenograft. The conditions noted are these: Day 21; ADC (1) 0.3 mg/kg iv Day 0, carboplatin 50 mg/kg iv Day 0.
Method: Human ovarian cancer cell line NIH:OVCAR-3, which was purchased from ATCC, was suspended into Matrigel (Corning Inc.), subcutaneously transplanted at 1.0×10^7 cells into the right side of female nude mice, and the mice were randomly grouped 24 days after the transplantation (Day 0). The antibody-drug conjugate (1) (formula 4) (DAR: 7.9) was intravenously administered to the tail vein at a dose of 0.3 mg/kg on Day 0. […] Single administration groups of each drug, a combined administration group, and a solvent administration group as a control group were set up.
Test [3] deals with Human ovarian cancer cell line OV-90. As to the kind of experiment: Antitumor study (4), combination with gemcitabine, OV-90 xenograft. Format: in vivo, mouse. Particulars: Day 21; ADC (1) 3 mg/kg iv Day 0, gemcitabine 15 mg/kg iv Day 0, 7, 14. On the procedure:
Measurement and calculation formula: In the study, the major axis and minor axis of tumors were measured up to 3 times a week with an electronic digital caliper (CD15-CX, Mitutoyo Corp.), and the tumor volume (mm^3) was calculated. The calculation formula is as shown below.

For test [4], the system named is Human ovarian cancer cell line NIH:OVCAR-3. As to the kind of experiment: In vivo antitumor effect after long-term treatment of carboplatin and paclitaxel, NIH:OVCAR-3 xenograft. Particulars: carboplatin 50 mg/kg and paclitaxel 30 mg/kg iv. More on the design: species or system mouse. On the procedure:
Measurement and calculation formula: In the study, the major axis and minor axis of tumors were measured up to 3 times a week with an electronic digital caliper (CD15-CX, Mitutoyo Corp.), and the tumor volume (mm^3) was calculated. The calculation formula is as shown below. Tumor volume (mm^3)=½×Major axis (mm)×[Minor axis (mm)]^2.
Carboplatin was diluted with physiological saline, and intravenously administered to the tail vein in a fluid volume of 10 mL/kg. Paclitaxel was dissolved with cremophor and ethanol (1:1), diluted with physiological saline, and then intravenously administered to the tail vein in a fluid volume of 10 mL/kg. The antibody-drug conjugate (formula 4) was diluted with ABS buffer (10 mM acetate buffer [pH 5.5], 5% sorbitol), and intravenously administered to the tail vein in a fluid volume of 10 mL/kg.
For clarity, the antibody comprised in the antibody-drug conjugate (1) administered is referred as “H01L02” in the present invention.

In test [5] the test system is Human ovarian cancer cell line OV-90. The class given is in vivo, mouse. Particulars: Day 15; ADC (1) 10 mg/kg iv Day 0, carboplatin 50 mg/kg iv Day 0, paclitaxel 20 mg/kg iv Day 1. On the procedure: Measurement and calculation formula: In the study, the major axis and minor axis of tumors were measured twice a week with an electronic digital caliper (CD15-CX, Mitutoyo Corp.), and the tumor volume (mm^3) was calculated. The calculation formula is as shown below.

As to `N.N.O=C([O-])C1(C(=O)[O-])CCC1.[Pt+2]` [carboplatin], in test [1], the TGI is 23%. Moreover, in test [2], the “tumor growth inhibition (TGI)” value worked out at 47%.

As for `Nc1ccn([C@@H]2O[C@H](CO)[C@@H](O)C2(F)F)c(=O)n1` [gemcitabine], in test [3], the TGI turned out to be 23%.

With carboplatin and paclitaxel, in test [4] (12 mice), the “tumor response to the first dosing” value is “the tumor regressed in all cases”. Besides, the “time to tumor regrowth after the first dosing” value in test [4] (regrowth in all most cases) is not above 6 weeks. In test [5], this molecule came in with a TGI of 65%.
